Test system: 377384-186-R-J1-PDC complex spheroid viability
Assay: Anticancer human tumor 377384-186-R-J1-PDC patient-derived pancreatic carcinoma cell line growth inhibition [RAS]
Conditions: for IC50: curve of first compound; for viability, T/C: stronger effect = lower value
Procedure, shortened: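 Agents were tested in combination matrices in half-log decrements from a top concentration at or near clinical Cmax (10 microM if undetermined). Targets were multi-cell spheroids of tumour lines plus HUVEC and MSC stromal cells.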
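Note: spheroids exposed to compounds for seven days before readout.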

`CC(C)NCC(C(=O)N1CCN(c2ncnc3c2C(C)CC3O)CC1)c1ccc(Cl)cc1` (centres undefined) + CCn1c(-c2cc(N3CCN(C)CC3)cnc2C(C)OC)c2c3cc(ccc31)-c1csc(n1)CC(NC(=O)C1CC1C)C(=O)N1CCCC(N1)C(=O)OCC(C)(C)C2 showed an IC50 (second compound 0.000949 µM) of 126 nM, an IC50 (second compound 0.003 µM) of less than 31.6 nM and an IC50 (second compound 0.00949 µM) of less than 31.6 nM. For the same molecule, the IC50 (second compound 0.03 µM) was less than 31.6 nM, the IC50 (second compound 0.0949 µM) was less than 31.6 nM and the IC50 (second compound 0.3 µM) was less than 31.6 nM. For the same molecule, the viability, T/C (second compound 0.000949 µM, first compound 0.0316 µM) was 60.4%, the viability, T/C (second compound 0.000949 µM, first compound 0.1 µM) was 54.6% and the viability, T/C (second compound 0.000949 µM, first compound 0.316 µM) was 38.6%. It also gave a viability, T/C (second compound 0.000949 µM, first compound 1 µM) of 34.1%, a viability, T/C (second compound 0.000949 µM, first compound 3.16 µM) of 34.1% and a viability, T/C (second compound 0.000949 µM, first compound 10 µM) of 19%. The viability, T/C (second compound 0.003 µM, first compound 0.0316 µM) was 19.6%, the viability, T/C (second compound 0.003 µM, first compound 0.1 µM) was 21.2% and the viability, T/C (second compound 0.003 µM, first compound 0.316 µM) was 17.9%. It also gave a viability, T/C (second compound 0.003 µM, first compound 1 µM) of 16.4%, a viability, T/C (second compound 0.003 µM, first compound 3.16 µM) of 12.7% and a viability, T/C (second compound 0.003 µM, first compound 10 µM) of 8.24%. The viability, T/C (second compound 0.00949 µM, first compound 0.0316 µM) was 5.67%, the viability, T/C (second compound 0.00949 µM, first compound 0.1 µM) was 5.95% and the viability, T/C (second compound 0.00949 µM, first compound 0.316 µM) was 5.17%. For the same molecule, the viability, T/C (second compound 0.00949 µM, first compound 1 µM) was 7.15%, the viability, T/C (second compound 0.00949 µM, first compound 3.16 µM) was 6.27% and the viability, T/C (second compound 0.00949 µM, first compound 10 µM) was 3.27%. For the same molecule, the viability, T/C (second compound 0.03 µM, first compound 0.0316 µM) was 3.25%, the viability, T/C (second compound 0.03 µM, first compound 0.1 µM) was 2.3% and the viability, T/C (second compound 0.03 µM, first compound 0.316 µM) was 2.13%. It also gave a viability, T/C (second compound 0.03 µM, first compound 1 µM) of 1.68%, a viability, T/C (second compound 0.03 µM, first compound 3.16 µM) of 1.07% and a viability, T/C (second compound 0.03 µM, first compound 10 µM) of 0.92%. It also gave a viability, T/C (second compound 0.0949 µM, first compound 0.0316 µM) of 1.84%, a viability, T/C (second compound 0.0949 µM, first compound 0.1 µM) of 1.86% and a viability, T/C (second compound 0.0949 µM, first compound 0.316 µM) of 1.46%. It also gave a viability, T/C (second compound 0.0949 µM, first compound 1 µM) of 1.22%, a viability, T/C (second compound 0.0949 µM, first compound 3.16 µM) of 0.74% and a viability, T/C (second compound 0.0949 µM, first compound 10 µM) of 0.17%. It also gave a viability, T/C (second compound 0.3 µM, first compound 0.0316 µM) of 2%, a viability, T/C (second compound 0.3 µM, first compound 0.1 µM) of 2.02% and a viability, T/C (second compound 0.3 µM, first compound 0.316 µM) of 1.61%. For the same molecule, the viability, T/C (second compound 0.3 µM, first compound 1 µM) was 0.77%, the viability, T/C (second compound 0.3 µM, first compound 3.16 µM) was 0.64% and the viability, T/C (second compound 0.3 µM, first compound 10 µM) was 0.3%.

For `CCN1CCN(Cc2ccc(Nc3ncc(F)c(-c4cc(F)c5nc(C)n(C(C)C)c5c4)n3)nc2)CC1` + C#Cc1c(F)ccc2cc(O)cc(-c3ncc4c(N5CC6CCC(C5)N6)nc(OCC56CCCN5CC(F)C6)nc4c3F)c12, the IC50 (second compound 0.0316 µM) was less than 3.16 nM, the IC50 (second compound 0.1 µM) was less than 3.16 nM and the IC50 (second compound 0.316 µM) was less than 3.16 nM. It also gave an IC50 (second compound 1 µM) of less than 3.16 nM, an IC50 (second compound 3.16 µM) of less than 3.16 nM and an IC50 (second compound 10 µM) of less than 3.16 nM. The viability, T/C (second compound 0.0316 µM, first compound 0.00316 µM) was 21%, the viability, T/C (second compound 0.0316 µM, first compound 0.01 µM) was 18.9% and the viability, T/C (second compound 0.0316 µM, first compound 0.0316 µM) was 11.8%. The viability, T/C (second compound 0.0316 µM, first compound 0.1 µM) was 11.6%, the viability, T/C (second compound 0.0316 µM, first compound 0.316 µM) was 5.8% and the viability, T/C (second compound 0.0316 µM, first compound 1 µM) was 4.39%. It also gave a viability, T/C (second compound 0.1 µM, first compound 0.00316 µM) of 9.77%, a viability, T/C (second compound 0.1 µM, first compound 0.01 µM) of 9.8% and a viability, T/C (second compound 0.1 µM, first compound 0.0316 µM) of 8.49%. For the same molecule, the viability, T/C (second compound 0.1 µM, first compound 0.1 µM) was 4.76%, the viability, T/C (second compound 0.1 µM, first compound 0.316 µM) was 3.64% and the viability, T/C (second compound 0.1 µM, first compound 1 µM) was 2.94%. The viability, T/C (second compound 0.316 µM, first compound 0.00316 µM) was 3.83%, the viability, T/C (second compound 0.316 µM, first compound 0.01 µM) was 3.75% and the viability, T/C (second compound 0.316 µM, first compound 0.0316 µM) was 3.3%. It also gave a viability, T/C (second compound 0.316 µM, first compound 0.1 µM) of 2.21%, a viability, T/C (second compound 0.316 µM, first compound 0.316 µM) of 2.67% and a viability, T/C (second compound 0.316 µM, first compound 1 µM) of 2.17%. It also gave a viability, T/C (second compound 1 µM, first compound 0.00316 µM) of 2.87%, a viability, T/C (second compound 1 µM, first compound 0.01 µM) of 2.26% and a viability, T/C (second compound 1 µM, first compound 0.0316 µM) of 2.11%. For the same molecule, the viability, T/C (second compound 1 µM, first compound 0.1 µM) was 1.55%, the viability, T/C (second compound 1 µM, first compound 0.316 µM) was 2.1% and the viability, T/C (second compound 1 µM, first compound 1 µM) was 2.53%. The viability, T/C (second compound 3.16 µM, first compound 0.00316 µM) was 1.72%, the viability, T/C (second compound 3.16 µM, first compound 0.01 µM) was 1.78% and the viability, T/C (second compound 3.16 µM, first compound 0.0316 µM) was 1.26%. For the same molecule, the viability, T/C (second compound 3.16 µM, first compound 0.1 µM) was 1.41%, the viability, T/C (second compound 3.16 µM, first compound 0.316 µM) was 1.98% and the viability, T/C (second compound 3.16 µM, first compound 1 µM) was 1.76%. For the same molecule, the viability, T/C (second compound 10 µM, first compound 0.00316 µM) was 1.13%, the viability, T/C (second compound 10 µM, first compound 0.01 µM) was 1.55% and the viability, T/C (second compound 10 µM, first compound 0.0316 µM) was 0.87%. The viability, T/C (second compound 10 µM, first compound 0.1 µM) was 0.72%, the viability, T/C (second compound 10 µM, first compound 0.316 µM) was 0.67% and the viability, T/C (second compound 10 µM, first compound 1 µM) was 0.32%.
